The target in test [1] is T1, human muscarinic 1 receptor (M1R) (Homo sapiens, UniProt P11229).
T1 construct: The M1R constructs used in this assay consisted of the full-length human muscarinic 1 receptor; FLAG (N); expressed in transfected cells; membrane extracts
T1 sequence (P11229 1-460): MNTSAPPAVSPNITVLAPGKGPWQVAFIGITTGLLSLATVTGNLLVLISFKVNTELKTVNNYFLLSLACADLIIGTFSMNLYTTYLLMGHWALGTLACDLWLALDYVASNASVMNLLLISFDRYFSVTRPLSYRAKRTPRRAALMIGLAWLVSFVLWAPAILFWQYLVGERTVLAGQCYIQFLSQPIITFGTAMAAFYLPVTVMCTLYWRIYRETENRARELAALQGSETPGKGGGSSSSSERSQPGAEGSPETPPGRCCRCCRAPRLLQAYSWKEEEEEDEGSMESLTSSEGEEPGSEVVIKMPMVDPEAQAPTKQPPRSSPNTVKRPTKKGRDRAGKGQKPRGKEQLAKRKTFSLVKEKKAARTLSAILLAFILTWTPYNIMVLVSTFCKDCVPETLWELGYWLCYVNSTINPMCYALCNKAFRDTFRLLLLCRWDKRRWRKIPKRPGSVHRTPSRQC
The test can be described thus: Radioligand binding assay (RLA) on M1R membrane extracts. The note with it: for Shift: IC50 of agonist without mimetic divided by IC50 with mimetic, averaged value; for increase of agonist affinity / stabilization of the receptor: acetylcholine chloride, mimetic at 100 μM. The text has this:
A radioligand displacement assay can quantify the pharmacological stabilization of the GPCR in the active conformation by comparing the affinities of an agonist for the basal versus the active GPCR conformer. In particular, stabilization of a GPCR in an active conformational state or specific binding to a GPCR in an active conformational state by a G protein peptidomimetic or a Gq/11 protein peptidomimetic as disclosed herein can be determined based on the shift in IC50 value of a ligand, in particular an agonist more particularly an orthosteric agonist, which binds to the GPCR when tested in the presence and the absence of the G protein peptidomimetic or the Gq/11 protein peptidomimetic. During the assay, the binding affinity of an orthosteric agonist for the receptor in presence and absence of the (allosteric) peptidomimetic is determined. Therefore, the GPCR, e.g. embedded in membrane extracts, is incubated with a radioligand and different concentrations of the agonist. By increasing the agonist concentration, radioligand will be displaced by the agonist. A leftward shift of the curve in the presence of the peptidomimetic is indicative of a peptidomimetic capable of stabilizing a GPCR in an active conformational state. A “shift” in IC50 value or IC50 shift is defined herein as the IC50 ratio of a ligand, in particular an agonist, more particularly an orthosteric agonist, which binds to the GPCR in the absence of a G protein peptidomimetic or a Gq/11 protein peptidomimetic relative to the presence of the G protein peptidomimetic or the Gq/11 protein peptidomimetic, or the IC50 value of a ligand, in particular an agonist, for binding to the GPCR in the absence of a G protein peptidomimetic or a Gq/11 protein peptidomimetic divided by the IC50 value of the ligand in the presence of the G protein peptidomimetic or the Gq/11 protein peptidomimetic in the same preparation, wherein said IC50 values are determined in a radioligand binding assay or radioligand displacement assay (RLA) as known to the skilled person. For example, a human muscarinic acetylcholine 1 receptor (M1R) radioligand binding assay using ^3H—N-methyl scopolamine (^3H-NMS) as the radioligand and increasing concentrations of acetylcholine chloride (agonist) as cold competitor may be used.
The membrane extracts were prepared from cells that overexpressed muscarinic acetylcholine 1 receptor (M1R), by resuspending the cell pellet in a buffer (1 ml buffer/2×1E7 cells) containing 20 mM Hepes (pH 7.4), 100 mM NaCl, Leupeptin and phenylmethylsulfonyl fluoride (PMSF). Afterwards the cells were vortexed and homogenized in ice using a small volume ULTRA-TURRAX® (6×10 sec). The cells were then centrifuged for 15 min at 16000 rcf, in a pre-cooled centrifuge (4° C.) and resuspended in the previous buffer containing 10% sucrose. Finally, the membranes were again homogenized in ice with the small volume ULTRA-TURRAX® (3×10 sec). The protein concentration in the membrane extracts was determined using a Pierce™ bicinchoninic acidv (BCA) Protein Assay Kit and the protein concentration was extrapolated from the Bovine Serum Albumine standard curve.
The M1R constructs used in this assay consisted of the full-length human muscarinic 1 receptor with a FLAG tag at the N-terminus. A buffer containing 20 mM Hepes pH 7.4, 100 mM NaCl, and 0.1% BSA was used for the ligands, membrane extracts and peptides (+1% dimethylsulfoxide (DMSO)). The competition assay was performed with [3H]—N-methyl scopolamine ([3H]-NMS) as radiolabeled antagonist, at a final concentration of 0.6 nM. A ten-fold dilution series of the agonist, acetylcholine chloride, was prepared to obtain a dose response curve. After incubation, the samples were harvested into filter plates (GF/C) and washed with ice cold washing buffer (20 mM Hepes pH 7.4) using the 96-well harvester. […]

The target of test [2] is T2, human ghrelin receptor (GHSR) (Homo sapiens, UniProt Q92847, C146S/C304S).
T2 construct: integrin α5 fragment (N); polyhistidine tag (C); made in house; host or cells: E. coli BL21(DE3)
In words: Bimane fluorescence assay on purified ghrelin receptor in nanodiscs. Format: biochemical. The conditions noted are these: bimane labeled GHSR; for maximum emission wavelength of bimane: in presence of full agonist JMV1843 (20 μM); for conformational change in the receptor: in presence of JMV1843. An excerpt:
Another assay that can be used to analyse conformational changes associated with GPCR activation and/or to identify G protein peptidomimetics that are capable of stabilizing a GPCR in an active conformational state is the bimane fluorescence assay or bimane assay. This assay works through labelling of a cysteine residue in the lower part of the TM6 of a GPCR with a bimane-fluorophore (monobromobimane (MB)). Binding of an agonist to the GPCR causes a conformational change and outward movement of TM6 that places bimane in a more solved-exposed position, which will alter its maximum emission wavelength. In particular, increasing concentrations of agonist result in a concentration-dependent red-shift of the maximum emission wavelength (λmax) of the bimane-fluorophore probe. In the presence of a G protein or an active state stabilizing G protein peptidomimetic λmax may increase further. For example, a bimane labelled ghrelin receptor (such as a cysmin mutant (i.e. mutant with minimal cysteines) of human ghrelin receptor (also referred to herein as growth hormone secretagogue receptor (GHSR) (e.g. the mutant as described in Damian et al. (2021) wherein monobromobimane (MB) fluorescent probe is attached to Cys^255) and ghrelin receptor agonist JMV1843 may be used.
The bimane fluorescence assays on the ghrelin receptor were performed as described in Damian et al. (2021. Nat. Commun. 12:1-15). Briefly, E. coli bacteria (BL21(DE3)) were transformed with a vector encoding the human ghrelin receptor with an integrin α5 fragment at the N-terminus and a polyhistidine tag at the C-terminus. The receptors were then purified and reconstituted into lipidated nanodiscs. The monobromobimane labeling was performed by incubating the receptors, with a unique reactive cysteine at position 255, during 16 h in the dark at 4° C. and in the presence of 0.1 mM tris(2-carboxyethyl)phosphine (TCEO). The reaction was terminated with 5 mM L-cysteine and unreacted monobromobimane was removed using a Zeba™ Spin desalting column.
For the fluorescence assay, the labeled receptor was incubated during 2 h at 20° C. (0.2 μM final concentration), in the absence or presence of the full agonist JMV1843 (20 μM) and in the absence or presence of either the peptidomimetics at varying molar ratios or the purified Gαqβ1γ2 heterotrimer, at a 1:5 receptor-to-G protein molar ratio. Afterwards, the fluorescence experiments were performed on a Horiba Fluoromax-4 TCSP spectrofluorimeter. For each scan, the excitation wavelength (λexc) was set at 380 nm and emission was collected between 440 nm and 520 nm.
The bimane assay is used on GPCRs to detect conformational changes associated with receptor activation. This assay functions through the labelling of a cysteine, which is one of the least frequently occurring amino acids in proteins. Additionally, the majority of the extracellular cysteines form disulfide bonds, which, together with the transmembrane cysteines, are inert to thiol-reactive reagents. Additionally, some of the intracellular cysteines in the C-terminal tail may carry post-translational modifications which reduces the number of reactive cysteines in the receptor (Tian et al. 2017. Chem. Rev. 117:186-245). For GHSR, the remaining reactive cysteine residues C146 (ICL2) and C304 (extracellular end of TM7) were replaced by serines (cysmin mutant, i.e. mutant with minimal cysteines), to allow the monobromobimane (MB) fluorescent probe to be specifically attached to Cys255 in the lower part of TM6 (FIG. 5a) (Damian et al. 2021). In this assay, bimane is chosen because of its small size and sensitivity to the polarity of its environment (Yao et al. 2006. Nat Chem. Biol. 2:417-422). Binding of a ligand to the receptor, causes a conformational change and outward movement of TM6 that places bimane in a more solvent-exposed position, which alters its maximum emission wavelength. […]

Positions of bridges follow the written chain, without caps; N, C: chain ends. Non-standard residues stand in square brackets, D forms with d. Residues, ends and D or L forms follow the SMILES beside them. Triazole bridges read from a SMILES are 1,4-linked. Lys(N3) = [N-]=[N+]=NCCCC[C@H](N)C(=O)O; Cha = N[C@@H](CC1CCCCC1)C(=O)O; Pra = C#CC[C@H](N)C(=O)O

T2 sequence (Q92847 whole entry C146S/C304S, the tested form may be a part): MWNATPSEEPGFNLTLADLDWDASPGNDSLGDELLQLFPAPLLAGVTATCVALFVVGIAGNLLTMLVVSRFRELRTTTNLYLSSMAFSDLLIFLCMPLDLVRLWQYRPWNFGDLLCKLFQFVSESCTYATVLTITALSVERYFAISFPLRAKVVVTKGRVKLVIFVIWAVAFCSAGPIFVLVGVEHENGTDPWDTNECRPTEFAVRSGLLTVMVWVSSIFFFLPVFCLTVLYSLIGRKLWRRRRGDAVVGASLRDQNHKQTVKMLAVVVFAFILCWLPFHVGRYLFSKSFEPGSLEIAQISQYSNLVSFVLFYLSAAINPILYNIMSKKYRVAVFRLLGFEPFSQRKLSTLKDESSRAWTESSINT

Regarding `CC[C@H](C)[C@H](NC(=O)[C@@H]1CCCCn2cc(nn2)C[C@H](NC(=O)[C@H](CC(N)=O)NC(=O)[C@H](Cc2ccccc2)NC(=O)[C@H](CCCCN)NC(=O)[C@H](CCCCN)NC(=O)[C@H](CCCCN)NC(C)=O)C(=O)N[C@@H](CS)C(=O)N[C@@H](CCCCN)C(=O)N[C@@H](CC(=O)O)C(=O)N1)C(=O)N[C@@H](CC(C)C)C(=O)N[C@@H](CCC(N)=O)C(=O)N[C@@H](CCSC)C(=O)N[C@@H](CC(N)=O)C(=O)N[C@@H](CC(C)C)C(=O)N[C@@H](CCCNC(=N)N)C(=O)N[C@@H](CCC(=O)O)C(=O)N[C@@H](Cc1ccc(O)cc1)C(=O)N[C@@H](CC(N)=O)C(=O)N[C@@H](CC1CCCCC1)C(=O)N[C@H](C(=O)O)C(C)C` [SBL-GQ-12] (Ac-KKKFN[Pra]CKD[Lys(N3)]ILQMNLREYN[Cha]V-OH; triazole 6-10), in test [1], the Shift was found to be 34; the “increase of agonist affinity / stabilization of the receptor” value was “more significant and promising stabilization of the receptor”. Moreover, the “maximum emission wavelength of bimane” value in test [2] is reported as about 478 nm.
“Ac-KKKFNDCKDIILQMNLREYNLV-OH [SBL-GQ-08]”: the Shift in test [1] is 2. Besides, the “conformational change in the receptor” value in test [2] is on record as “not able to induce a conformational change”.
`CC[C@H](C)[C@H](NC(=O)[C@@H]1CCCCn2cc(nn2)C[C@H](NC(=O)[C@H](C)NC(=O)[C@H](Cc2ccccc2)NC(=O)[C@H](CCCCN)NC(=O)[C@H](CCCCN)NC(=O)[C@H](CCCCN)NC(C)=O)C(=O)N[C@@H](C(C)C)C(=O)N[C@@H](CCCCN)C(=O)N[C@@H](CC(=O)O)C(=O)N1)C(=O)N[C@@H](CC(C)C)C(=O)N[C@@H](CCC(N)=O)C(=O)N[C@@H](CC(C)C)C(=O)N[C@@H](CC(N)=O)C(=O)N[C@@H](CC(C)C)C(=O)N[C@@H](CCCCN)C(=O)N[C@@H](CCC(=O)O)C(=O)N[C@@H](Cc1ccc(O)cc1)C(=O)N[C@@H](CC(N)=O)C(=O)N[C@@H](CC1CCCCC1)C(=O)N[C@H](C(=O)O)C(C)C` [SBL-GQ-06] (Ac-KKKFA[Pra]VKD[Lys(N3)]ILQLNLKEYN[Cha]V-OH; triazole 6-10): in test [1], the Shift was 8 and the “increase of agonist affinity / stabilization of the receptor” value is recorded as “slight increase in agonist affinity”. Moreover, the “maximum emission wavelength of bimane” value in test [2] is given as about 478 nm.
On to `CC[C@H](C)[C@H](NC(=O)[C@@H]1CCCCn2cc(nn2)C[C@H](NC(=O)[C@H](CC(N)=O)NC(=O)[C@H](Cc2ccccc2)NC(=O)[C@H](CCCCN)NC(=O)[C@H](CCCCN)NC(=O)[C@H](CCCCN)NC(C)=O)C(=O)N[C@@H](CS)C(=O)N[C@@H](CCCCN)C(=O)N[C@@H](CC(=O)O)C(=O)N1)C(=O)N[C@@H](CC(C)C)C(=O)N[C@@H](CCC(N)=O)C(=O)N[C@@H](CCSC)C(=O)N[C@@H](CC(N)=O)C(=O)N[C@@H](CC(C)C)C(=O)N[C@@H](CCCNC(=N)N)C(=O)N[C@@H](CCC(=O)O)C(=O)N[C@@H](Cc1ccc(O)cc1)C(=O)N[C@@H](CC(N)=O)C(=O)N[C@@H](CC(C)C)C(=O)N[C@H](C(=O)O)C(C)C` [SBL-GQ-11] (Ac-KKKFN[Pra]CKD[Lys(N3)]ILQMNLREYNLV-OH; triazole 6-10), for which, in test [1], the Shift is reported as 7 and the “increase of agonist affinity / stabilization of the receptor” value is “slight increase in agonist affinity”. The “maximum emission wavelength of bimane” value in test [2] was about 478 nm.
Take “Ac-KKKFAAVKDTILQLNLKEYNLV-OH [SBL-GQ-02]”: in test [1], the Shift is on record as 2. The “conformational change in the receptor” value in test [2] is recorded as “not able to induce a conformational change”.
As for `CC[C@H](C)[C@H](NC(=O)[C@H](CC(=O)O)NC(=O)[C@H](CCCCN)NC(=O)[C@H](CS)NC(=O)[C@H](CC(=O)O)NC(=O)[C@H](CC(N)=O)NC(=O)[C@H](Cc1ccccc1)NC(=O)[C@H](CCCCN)NC(=O)[C@H](CCCCN)NC(=O)[C@H](CCCCN)NC(C)=O)C(=O)N[C@H](C(=O)N[C@@H](CC(C)C)C(=O)N[C@@H](CCC(N)=O)C(=O)N[C@@H](CCSC)C(=O)N[C@@H](CC(N)=O)C(=O)N[C@@H](CC(C)C)C(=O)N[C@@H](CCCNC(=N)N)C(=O)N[C@@H](CCC(=O)O)C(=O)N[C@@H](Cc1ccc(O)cc1)C(=O)N[C@@H](CC(N)=O)C(=O)N[C@@H](CC1CCCCC1)C(=O)N[C@H](C(=O)O)C(C)C)[C@@H](C)CC` [SBL-GQ-10] (Ac-KKKFNDCKDIILQMNLREYN[Cha]V-OH), the Shift in test [1] is given as 2. Also, the “conformational change in the receptor” value in test [2] is given as “not able to induce a conformational change”.

The values are drawn from patent US20260242759A1, “GQ/11 Protein Peptidomimetics” (Vrije Universiteit Brussel, priority 2022, published 2026).
